Test results taken from patent US20220401564A1 (DANA-FARBER CANCER INSTITUTE, INC., priority 2019, published 2022).

Assays:
Experiment in all cases: HDAC enzymatic assay (Reaction Biology), Class 2A substrate
Assay type in all cases: biochemical
HDAC4 = target: T1, HDAC4 (Homo sapiens, UniProt P56524); details: 10-dose response curve; read-out: Compound IC50 (M), HDAC4
T1 construct: purchased Reaction Biology
Procedure: (§1) Compounds 2 and 9 were tested in an enzymatic assay from Reaction Biology® against HDAC isoforms.
(§2) Base Reaction buffer: 50 mM Tris-HCl, pH8.0, 137 mM NaCl, 2.7 mM KCl, and 1 mM MgCl2. Add fresh: 1 mg/ml BSA, 1% DMSO
(§3) Class 2A Substrate (HDAC4, HDAC5, HDAC7, and HDAC9): Boc-Lys(trifluoroacetyl)-AMC
(§4) 1. Delivered 2X enzyme in wells of reaction plate except in the control wells and added buffer to control wells. 2. Delivered compounds in 100% DMSO into the enzyme mixture by Acoustic technology (Echo550; nanoliter range). Spin down and pre-incubation. 3. Delivered 2X Substrate Mixture (Fluorogenic HDAC Substrate and co-factor if applicable) in all reaction wells to initiate the reaction. Spin and shake. 4. Incubated for 30 min for Class 2A, 1 h for HDAC1, 2, 3, and 6, and 2 h for the rest of HDAC isoforms and SIRTs at 30° C. with seal.
(§5) 5. Added Developer with Trichostatin A (or Nicotinamide for SIRTs) to stop the reaction and to generate fluorescent color. 6. The fluorescence that was generated was detected with excitation (Ex) at […] and emission (Em) at 460 nM by the EnVision Multilabel Plate Reader (PerkinElmer®, Santa Clara, Calif., USA).
(§6) IC50 values were derived from a 10-dose response curve. As shown in Tables 1-2, the addition of a linker and CRBN targeting group altered the isoform selectivity of the SAHA-based degrader compounds.

HDAC9 = target: T2, HDAC9 (Homo sapiens, UniProt Q9UKV0); details: 10-dose response curve; read-out: Compound IC50 (M), HDAC9
T2 construct: purchased Reaction Biology
Procedure: as §1, §2, §3, §4, §5, §6

HDAC7 = target: T3, HDAC7 (Homo sapiens, UniProt Q8WUI4); details: 10-dose response curve; read-out: Compound IC50 (M), HDAC7
T3 construct: purchased Reaction Biology
T3 sequence (Q8WUI4 1-952): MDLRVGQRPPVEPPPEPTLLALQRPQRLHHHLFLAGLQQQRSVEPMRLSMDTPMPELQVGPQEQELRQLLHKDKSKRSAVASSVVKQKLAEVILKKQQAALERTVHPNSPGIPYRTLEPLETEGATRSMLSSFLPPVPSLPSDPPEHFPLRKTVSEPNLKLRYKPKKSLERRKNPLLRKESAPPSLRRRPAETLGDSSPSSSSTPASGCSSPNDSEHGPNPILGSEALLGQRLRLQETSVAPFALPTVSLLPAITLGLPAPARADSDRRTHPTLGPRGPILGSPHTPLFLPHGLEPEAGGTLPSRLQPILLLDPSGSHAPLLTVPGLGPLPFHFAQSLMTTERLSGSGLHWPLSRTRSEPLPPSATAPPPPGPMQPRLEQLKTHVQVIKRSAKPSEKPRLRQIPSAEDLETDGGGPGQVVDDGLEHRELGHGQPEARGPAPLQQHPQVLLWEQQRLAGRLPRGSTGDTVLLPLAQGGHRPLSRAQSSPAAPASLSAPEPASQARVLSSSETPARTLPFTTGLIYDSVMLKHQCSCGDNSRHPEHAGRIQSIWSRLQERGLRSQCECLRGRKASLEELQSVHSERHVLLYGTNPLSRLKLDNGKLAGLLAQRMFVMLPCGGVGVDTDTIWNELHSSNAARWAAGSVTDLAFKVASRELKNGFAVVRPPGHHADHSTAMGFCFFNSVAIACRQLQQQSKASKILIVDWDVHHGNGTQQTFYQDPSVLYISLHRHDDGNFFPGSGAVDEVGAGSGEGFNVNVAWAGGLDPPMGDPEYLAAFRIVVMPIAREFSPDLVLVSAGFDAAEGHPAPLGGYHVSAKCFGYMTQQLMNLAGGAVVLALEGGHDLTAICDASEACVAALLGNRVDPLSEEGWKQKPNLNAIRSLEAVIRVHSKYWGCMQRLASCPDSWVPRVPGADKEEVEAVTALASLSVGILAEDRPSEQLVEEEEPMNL
Procedure: as §1, §2, §3, §4, §5, §6

HDAC5 = target: T4, HDAC5 (Homo sapiens, UniProt Q9UQL6); details: 10-dose response curve; read-out: Compound IC50 (M), HDAC5
T4 construct: purchased Reaction Biology
Procedure: as §1, §2, §3, §4, §5, §6

T1 sequence (P56524 whole entry): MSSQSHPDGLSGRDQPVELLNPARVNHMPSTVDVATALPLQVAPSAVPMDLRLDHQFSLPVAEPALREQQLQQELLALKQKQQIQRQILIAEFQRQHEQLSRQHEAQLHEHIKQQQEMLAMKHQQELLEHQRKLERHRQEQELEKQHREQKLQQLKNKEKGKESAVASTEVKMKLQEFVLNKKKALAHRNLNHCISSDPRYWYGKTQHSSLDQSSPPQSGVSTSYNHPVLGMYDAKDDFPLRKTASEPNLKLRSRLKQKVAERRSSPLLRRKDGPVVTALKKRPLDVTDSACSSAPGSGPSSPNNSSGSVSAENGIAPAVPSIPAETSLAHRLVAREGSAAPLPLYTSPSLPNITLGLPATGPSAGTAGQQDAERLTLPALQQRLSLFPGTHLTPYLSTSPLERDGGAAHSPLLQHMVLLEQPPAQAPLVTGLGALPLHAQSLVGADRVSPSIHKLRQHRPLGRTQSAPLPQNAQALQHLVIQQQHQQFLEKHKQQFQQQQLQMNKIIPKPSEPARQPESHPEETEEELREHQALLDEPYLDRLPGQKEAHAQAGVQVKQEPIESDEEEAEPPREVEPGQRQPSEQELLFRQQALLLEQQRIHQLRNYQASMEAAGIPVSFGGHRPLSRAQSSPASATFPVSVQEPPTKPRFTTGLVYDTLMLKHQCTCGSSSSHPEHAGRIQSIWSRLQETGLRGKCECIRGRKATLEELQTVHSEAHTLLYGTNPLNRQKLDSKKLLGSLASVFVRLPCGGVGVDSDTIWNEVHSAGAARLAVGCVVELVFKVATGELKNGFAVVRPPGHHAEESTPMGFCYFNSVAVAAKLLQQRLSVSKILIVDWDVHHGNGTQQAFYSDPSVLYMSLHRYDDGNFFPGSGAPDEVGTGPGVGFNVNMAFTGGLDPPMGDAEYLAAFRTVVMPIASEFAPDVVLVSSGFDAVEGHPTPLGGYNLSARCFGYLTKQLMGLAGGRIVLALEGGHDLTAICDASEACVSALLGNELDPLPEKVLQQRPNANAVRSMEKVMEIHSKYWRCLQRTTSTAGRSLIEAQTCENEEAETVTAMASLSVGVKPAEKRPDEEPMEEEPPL
T2 sequence (Q9UKV0 whole entry): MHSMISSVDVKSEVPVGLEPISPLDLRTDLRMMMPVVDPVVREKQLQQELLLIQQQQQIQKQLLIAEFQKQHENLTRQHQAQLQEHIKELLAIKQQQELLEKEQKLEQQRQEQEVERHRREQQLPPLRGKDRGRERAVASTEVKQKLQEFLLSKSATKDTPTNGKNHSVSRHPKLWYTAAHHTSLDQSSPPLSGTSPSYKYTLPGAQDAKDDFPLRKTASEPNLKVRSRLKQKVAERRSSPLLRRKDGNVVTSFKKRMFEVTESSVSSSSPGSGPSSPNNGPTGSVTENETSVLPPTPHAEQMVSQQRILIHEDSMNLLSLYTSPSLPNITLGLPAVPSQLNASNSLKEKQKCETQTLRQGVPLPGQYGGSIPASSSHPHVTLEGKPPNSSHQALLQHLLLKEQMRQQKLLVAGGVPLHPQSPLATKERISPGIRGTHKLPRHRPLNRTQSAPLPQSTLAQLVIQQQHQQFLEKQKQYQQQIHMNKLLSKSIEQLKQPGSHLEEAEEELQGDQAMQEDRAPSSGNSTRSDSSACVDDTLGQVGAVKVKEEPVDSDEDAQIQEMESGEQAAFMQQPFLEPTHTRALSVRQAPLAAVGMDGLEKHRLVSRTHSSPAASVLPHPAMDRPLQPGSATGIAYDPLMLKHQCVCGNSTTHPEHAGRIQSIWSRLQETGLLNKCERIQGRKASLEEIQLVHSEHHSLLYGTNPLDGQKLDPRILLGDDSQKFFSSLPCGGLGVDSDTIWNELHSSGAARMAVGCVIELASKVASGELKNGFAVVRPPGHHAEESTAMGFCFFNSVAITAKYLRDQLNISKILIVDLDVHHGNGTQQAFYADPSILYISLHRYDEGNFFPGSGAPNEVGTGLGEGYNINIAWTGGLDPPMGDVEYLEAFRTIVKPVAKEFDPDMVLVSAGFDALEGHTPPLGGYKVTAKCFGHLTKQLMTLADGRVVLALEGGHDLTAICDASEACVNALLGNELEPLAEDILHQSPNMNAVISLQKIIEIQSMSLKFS
T4 sequence (Q9UQL6 whole entry): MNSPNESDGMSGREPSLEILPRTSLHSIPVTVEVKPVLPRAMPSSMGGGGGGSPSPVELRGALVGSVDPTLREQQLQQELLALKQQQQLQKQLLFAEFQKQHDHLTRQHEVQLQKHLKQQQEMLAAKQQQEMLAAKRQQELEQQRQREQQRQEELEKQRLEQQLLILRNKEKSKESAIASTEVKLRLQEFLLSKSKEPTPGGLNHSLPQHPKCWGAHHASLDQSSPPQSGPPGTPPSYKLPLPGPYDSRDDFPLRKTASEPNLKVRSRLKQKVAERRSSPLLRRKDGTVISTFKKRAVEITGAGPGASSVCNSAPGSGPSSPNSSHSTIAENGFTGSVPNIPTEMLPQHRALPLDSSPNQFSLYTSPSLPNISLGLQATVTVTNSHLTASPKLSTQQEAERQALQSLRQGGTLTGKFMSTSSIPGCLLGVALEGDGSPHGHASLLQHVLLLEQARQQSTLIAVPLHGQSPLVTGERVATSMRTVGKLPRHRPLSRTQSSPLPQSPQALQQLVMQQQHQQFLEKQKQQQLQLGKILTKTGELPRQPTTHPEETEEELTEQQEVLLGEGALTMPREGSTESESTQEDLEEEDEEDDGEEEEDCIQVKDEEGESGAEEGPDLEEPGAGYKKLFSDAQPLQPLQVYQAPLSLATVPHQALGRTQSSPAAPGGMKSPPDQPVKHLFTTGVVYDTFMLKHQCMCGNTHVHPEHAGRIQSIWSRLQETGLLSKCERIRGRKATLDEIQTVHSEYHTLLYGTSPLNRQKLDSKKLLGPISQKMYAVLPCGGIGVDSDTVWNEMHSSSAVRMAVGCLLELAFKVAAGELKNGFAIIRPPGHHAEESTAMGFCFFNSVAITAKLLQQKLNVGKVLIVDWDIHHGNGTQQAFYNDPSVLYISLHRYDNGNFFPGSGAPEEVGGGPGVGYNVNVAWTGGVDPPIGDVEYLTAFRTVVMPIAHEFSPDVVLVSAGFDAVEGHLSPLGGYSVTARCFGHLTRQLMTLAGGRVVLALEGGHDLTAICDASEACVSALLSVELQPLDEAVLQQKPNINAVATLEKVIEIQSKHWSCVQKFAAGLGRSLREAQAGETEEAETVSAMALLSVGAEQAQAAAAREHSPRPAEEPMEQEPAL

- IC50 (HDAC4): 1.31e-05 M
- IC50 (HDAC9): > 2e-05 M
- IC50 (HDAC7): 1.71e-05 M
- IC50 (HDAC5): 2.69e-06 M
SMILES: Cc1ncsc1-c1ccc([C@H](C)NC(=O)[C@@H]2C[C@@H](O)CN2C(=O)[C@@H](NC(=O)CCOCCOCCN(CCc2c[nH]c3ccccc23)Cc2ccc(/C=C/C(=O)NO)cc2)C(C)(C)C)cc1 [Compound 2, (2S,4R)-1-((S)-14-(tert-butyl)-3-(4-((E)-3-(hydroxyamino)-3-oxoprop-1-en-1-yl)benzyl)-1-(1H-indol-3-yl)-12-oxo-6,9-dioxa-3,13-diazapentadecan-15-oyl)-4-hydroxy-N—((S)-1-(4-(4-methylthiazol-5-yl)phenyl)ethyl)pyrrolidine-2-carboxamide]
